Reference: patent publication US8909483B2, “Direct or indirect diagnostic test for helminth infection” (priority 2002, dated 2014)

How the values were obtained:
Type in all cases: in vivo, outbred Swiss mice
[1] = system: S. mansoni; assay: First vaccination experiment against S. mansoni (Example 4, FIG. 11); conditions: 70 μg peptide + MPL-TDM + Al(OH)3, inguinal route, challenge 100 cercariae 60 days after last immunization, perfused 45 days later
Description: Percentage protection, {(C−V)/C}×100}, of outbred Swiss mice is given after vaccination and subsequent challenge with 100 cercariae. From left to right the bars correspond to vaccination with peptide 1.2, peptide 1.3, peptide 1.4, peptide 2.1, peptide 2.2, peptide 2.3, peptide 2.4, peptide 2.5, peptide 2.6, r-Sm14, saline extract (SE) administered via the footpad, SE administered via the inguinal route, adjuvant and PBS respectively. All peptides were administered via the inguinal route. All peptides were administered in the presence of the adjuvant monophosphoryl lipid A+trehalose dicorynomycolate (MPL-TDM, Ribi ImmunoChem Research Inc.)+Alum.
In this experiment, outbreed Swiss mice were immunized with two intradermal/subcutaneous doses at an interval of 7 days followed by a booster injection, 21 days later. In the case of the peptides, a dose of 70 μg in the presence of the adjuvant monophosphoryl lipid A+trehalose dimycolate (MPL-TDM, Ribi ImmunoChem Research Inc.) and Al(OH)3 was used for all injections. […]
(§1) For assays of protection against S. mansoni, the animals were challenged subcutaneously with 100 cercariae, 60 days after the last immunization and perfused 45 days later. Overall protection was calculated by the formula {(C−V)/C}×100, where C is the average number of worms in control animals and V is the average number of worms in vaccinated animals.

[2] = system: F. hepatica; assay: Fasciola hepatica protection assay (Example 6, FIG. 13); conditions: footpad, oral challenge 3 metacercariae, sacrifice 30 days after challenge
From the text: Due to the limited number of parasites used for challenge, animals are considered protected when they present sterile immunity, i.e. no adult worms are present after sacrifice. The mean protection is therefore given as the percentage of sterile animals at sacrifice. From left to right the bars correspond to peptide 1.1, peptide 1.3, peptide 1.4, peptide 2.1, peptide 2.5, r-Sm14+adjuvant, r-Sm14, adjuvant and PBS respectively. The adjuvant used was monophosphoryl lipid A+trehalose dicorynomycolate (MPL-TDM, Ribi ImmunoChem Research Inc.)+Alum.
This example refers to the use of some of the peptides described in Example 1 for vaccination against Fasciola hepatica in the Swiss mouse model. For the Fasciola hepatica protection assay each group (10 outbred Swiss mice/group) received three intradermal/subcutaneous doses via the footpad using an identical protocol to that described above for S. mansoni. Animals were vaccinated with either 70 μg of one of the sub-group of peptides described above (1.1, 1.3, 1.4, 2.1 and 2.5), emulsified in Ribi adjuvant (MPL-TDM) and Al(OH)3 or 10 μg of r-Sm14 (in the presence or absence of adjuvant), or an equivalent amount of adjuvant alone. Vaccinated and non-vaccinated control groups were simultaneously challenged orally with 3 metacercariae of F. hepatica 60 days after immunization and the sacrifice of all animals performed 30 days after challenge.

[3] = system: S. mansoni; assay: Second vaccination experiment against S. mansoni, footpad route (Example 5, FIG. 12); conditions: challenge 100 cercariae; for Percentage protection {(C−V)/C}×100: 70 μg peptide + MPL-TDM + Al(OH)3, footpad route, perfused 45 days later; for Performance (protection) compared with recombinant whole protein r-Sm14: footpad route
Description: Percentage protection is given as in FIG. 9. From left to right the bars correspond to peptide 1.1, peptide 1.3, peptide 1.4, peptide 2.1, peptide 2.5, r-Sm14, adjuvant and PBS respectively. In this experiment all samples were administered via the footpad. All peptides were administered in the presence of adjuvant: monophosphoryl lipid A+trehalose dicorynomycolate (MPL-TDM, Ribi ImmunoChem Research Inc.)+Alum.
In this experiment an identical protocol as Example 4 was employed for a sub-group of peptides including those which appeared most promising (1.1; 1.3; 1.4 and 2.1) together with 2.5 as a control, but employing the footpad as the route of administration.
as §1, with “Animals” for “For assays of protection against S. mansoni, the animals”

[4] = with adjuvant MPL-TDM + Al(OH)3, 70 μg peptide or 10 μg r-Sm14

## EKFSESKLTFDGIVREVDGATMKTT (Oligopeptide derived from the fusion of two peptides from Schistosoma mansoni) [Peptide 2.5, Alternate modification to 2.3]
[1]
  Percentage protection {(C−V)/C}×100: no protection at all and zero

## EKNSESKLTQ (Oligopeptide from Schistosoma mansoni) [Peptide 2.1, Loop between β-strands 6 and 7 of Sm14, residues 85 to 94]
[2]; [4]
  Percentage protection (percentage of sterile animals at sacrifice): 100%
[3]
  Percentage protection {(C−V)/C}×100: 50%
  Performance (protection) compared with recombinant whole protein r-Sm14: equivalent to that seen for the recombinant whole protein

## KIGTSVFGTRTSKFDATEMVLDKEE [Peptide 2.6, 2.5 randomized; control peptide of identical amino acid composition]
[1]
  Percentage protection {(C−V)/C}×100: no protection at all and zero

## VTVGDVTA (oligopeptide from Schistosoma mansoni) [Peptide 1.1, Loop between β-strands 9 and 10 of Sm14, residues 118 to 125]
[2]; [4]
  Percentage protection (percentage of sterile animals at sacrifice): 66.7%
[3]
  Percentage protection {(C−V)/C}×100: ~50%
  Performance (protection) compared with recombinant whole protein r-Sm14: equivalent to that seen for the recombinant whole protein

## VTVGDVTANFDAVMSKLG (Oligopeptide derived from the fusion of two peptides from Schistosoma mansoni) [Peptide 1.3, Union of 1.1 and 1.2]
[2]; [4]
  Percentage protection (percentage of sterile animals at sacrifice): 50%
[3]
  Performance (protection) compared with recombinant whole protein r-Sm14: equivalent to that seen for the recombinant whole protein

## VTVGDVTGGSDAVMSKLG (Oligopeptide derived from the fusion of two peptides from Schistosoma mansoni) [Peptide 1.4, 1.3 modified]
[2]; [4]
  Percentage protection (percentage of sterile animals at sacrifice): 100%
[3]
  Performance (protection) compared with recombinant whole protein r-Sm14: equivalent to that seen for the recombinant whole protein

B1: r-Sm14: recombinant Sm14 protein expressed by the pRSETA-6×His-Sm14 construct in E. coli BL21(DE3) (protein, UniProt P29498 1-133, looked up)
14 kDa fatty acid-binding …: MSSFLGKWKLSESHNFDAVMSKLGVSWATRQIGNTVTPTVTFTMDGDKMTMLTESTFKNLSCTFKFGEEFDEKTSDGRNVKSVVEKNSESKLTQTQVDPKNTTVIVREVDGDTMKTTVTVGDVTAIRNYKRLS
modifications: 6xHis tag
[2]; absence of adjuvant, 10 μg r-Sm14
  Percentage protection (percentage of sterile animals at sacrifice): 100%
[2]; [4]
  Percentage protection (percentage of sterile animals at sacrifice): 100%
